{
  "source": "paper PMC11182235",
  "about": "(Frontiers in Ophthalmology, 2023)",
  "key": {"adult porcine RGCs": {"test_system": "adult porcine RGCs", "details": "cited from earlier work"}, "isolated rat RGCs": {"test_system": "isolated rat RGCs", "details": "cited from earlier work"}, "RGC": {"test_system": "RGC", "details": "in vivo; cited from earlier work"}, "[1]": {"test_system": "isolated retinal ganglion cells", "details": "cited from earlier work"}, "[2]": {"test_system": "isolated retinal ganglion cells", "type": "cell-based, porcine"}, "α7 nAChR": {"molecular_target": "α7 nAChR (Sus scrofa, UniProt F1SNR6)", "sequence (F1SNR6 20-499 limits assumed)": "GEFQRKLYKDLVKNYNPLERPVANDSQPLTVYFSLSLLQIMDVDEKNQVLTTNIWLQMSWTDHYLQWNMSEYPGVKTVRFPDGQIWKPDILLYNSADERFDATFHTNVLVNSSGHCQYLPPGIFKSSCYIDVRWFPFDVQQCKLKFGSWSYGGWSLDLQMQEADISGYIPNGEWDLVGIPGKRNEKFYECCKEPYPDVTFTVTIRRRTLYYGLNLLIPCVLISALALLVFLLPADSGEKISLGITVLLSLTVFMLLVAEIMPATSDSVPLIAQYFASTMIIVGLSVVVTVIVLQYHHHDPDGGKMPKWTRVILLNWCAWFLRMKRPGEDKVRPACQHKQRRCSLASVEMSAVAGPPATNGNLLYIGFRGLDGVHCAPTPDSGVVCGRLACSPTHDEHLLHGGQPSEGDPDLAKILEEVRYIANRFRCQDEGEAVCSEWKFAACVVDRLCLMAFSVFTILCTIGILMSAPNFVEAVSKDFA", "experiment": "biochemical", "type": "binding, porcine"}, "retinal ganglion cells": {"test_system": "retinal ganglion cells", "type": "cell-based, rat"}, "α3 nAChR": {"molecular_target": "α3 nAChR (Sus scrofa, UniProt A0A287A7Z4)", "sequence (A0A287A7Z4 30-503 limits assumed)": "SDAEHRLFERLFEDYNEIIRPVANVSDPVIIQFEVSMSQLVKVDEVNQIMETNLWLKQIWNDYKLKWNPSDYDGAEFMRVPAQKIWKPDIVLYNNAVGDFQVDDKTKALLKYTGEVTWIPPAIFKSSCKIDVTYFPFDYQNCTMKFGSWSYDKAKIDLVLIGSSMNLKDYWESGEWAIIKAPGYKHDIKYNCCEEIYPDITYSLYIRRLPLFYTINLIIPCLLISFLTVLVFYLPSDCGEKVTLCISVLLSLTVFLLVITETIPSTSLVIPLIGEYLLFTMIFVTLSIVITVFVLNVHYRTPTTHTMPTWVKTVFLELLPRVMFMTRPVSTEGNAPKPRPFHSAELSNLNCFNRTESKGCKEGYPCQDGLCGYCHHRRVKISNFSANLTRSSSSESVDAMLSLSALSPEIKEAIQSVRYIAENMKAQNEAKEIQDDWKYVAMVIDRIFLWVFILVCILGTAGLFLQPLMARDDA", "type": "binding, porcine", "details": "read-out: Mean Ki against [3H]-epibatidine"}, "α7 nicotinic receptors": {"molecular_target": "α7 nicotinic receptors", "details": "cited from earlier work"}, "α4β2 nicotinic receptors": {"molecular_target": "α4β2 nicotinic receptors", "details": "cited from earlier work"}, "α4 nAChR": {"molecular_target": "α4 nAChR (Sus scrofa, UniProt A0A286ZKF4+A0A287BFD8)", "sequence (A0A286ZKF4 31-595 limits assumed)": "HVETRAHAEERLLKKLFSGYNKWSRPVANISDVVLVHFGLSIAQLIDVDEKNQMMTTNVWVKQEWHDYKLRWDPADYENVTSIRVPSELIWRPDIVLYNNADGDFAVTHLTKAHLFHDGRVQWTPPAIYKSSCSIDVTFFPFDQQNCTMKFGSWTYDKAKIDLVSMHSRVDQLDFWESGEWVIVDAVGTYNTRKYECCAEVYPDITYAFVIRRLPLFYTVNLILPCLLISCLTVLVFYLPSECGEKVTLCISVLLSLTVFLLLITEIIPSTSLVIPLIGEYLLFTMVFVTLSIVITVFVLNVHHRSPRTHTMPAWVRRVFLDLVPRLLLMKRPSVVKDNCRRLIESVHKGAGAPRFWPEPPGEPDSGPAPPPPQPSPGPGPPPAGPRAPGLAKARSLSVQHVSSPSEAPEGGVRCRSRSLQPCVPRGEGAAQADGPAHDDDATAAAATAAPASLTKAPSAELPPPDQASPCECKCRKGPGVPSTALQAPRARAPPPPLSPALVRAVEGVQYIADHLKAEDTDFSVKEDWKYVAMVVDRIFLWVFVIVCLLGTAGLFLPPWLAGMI", "sequence (A0A287BFD8 26-502 limits assumed)": "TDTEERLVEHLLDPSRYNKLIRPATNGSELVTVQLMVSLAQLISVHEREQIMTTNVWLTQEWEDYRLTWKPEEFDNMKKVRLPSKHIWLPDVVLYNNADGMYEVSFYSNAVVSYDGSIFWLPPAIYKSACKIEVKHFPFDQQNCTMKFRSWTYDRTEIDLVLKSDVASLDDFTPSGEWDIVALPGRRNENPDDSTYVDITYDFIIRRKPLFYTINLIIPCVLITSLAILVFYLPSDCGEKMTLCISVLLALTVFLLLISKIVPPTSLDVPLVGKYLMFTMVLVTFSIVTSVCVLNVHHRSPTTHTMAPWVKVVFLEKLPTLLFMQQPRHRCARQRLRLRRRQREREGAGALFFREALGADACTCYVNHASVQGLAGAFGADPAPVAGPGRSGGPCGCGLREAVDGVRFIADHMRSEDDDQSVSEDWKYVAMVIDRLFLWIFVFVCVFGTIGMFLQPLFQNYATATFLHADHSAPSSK", "type": "binding, porcine", "details": "for Ki: read-out: Mean Ki against [3H]-cytisine"}, "α7 nAChRs": {"test_system": "α7 nAChRs", "details": "cited from earlier work"}, "α3β4 receptors": {"molecular_target": "α3β4 receptors", "details": "cited from earlier work"}, "[3]": {"details": "rat retinal slice, RGCs, fluo-4 fluorescence, n = 4"}},
  "note": "Entries after “also recorded” stand apart in the source; their conditions may differ. Like-named read-outs stand apart in the source and are kept apart here.",
  "data": [
    {"compound": "CC(=O)OCC[N+](C)(C)C", "note": "[ACh, acetylcholine]", "values": [
      {"measurement": "Reduction of glutamate-induced excitotoxicity", "setting": "adult porcine RGCs", "result": "significantly reduced"}
    ]},
    {"compound": "CCN1C[C@]2(COC(=O)c3ccccc3N3C(=O)C[C@H](C)C3=O)CC[C@H](OC)[C@@]34[C@@H]5C[C@H]6[C@H](OC)[C@@H]5[C@](O)(C[C@@H]6OC)[C@@](O)([C@@H](OC)[C@H]23)[C@@H]14", "note": "[MLA, Methyllycaconitine]", "values": [
      {"measurement": "Block of neuroprotective effect of 100 nM PNU-282987 against glutamate-induced toxicity", "setting": "isolated rat RGCs", "result": "blocked; also recorded: inhibited the protective effects"}
    ]},
    {"compound": "O=C(N[C@H]1CN2CCC1CC2)c1ccc(Cl)cc1", "note": "[PNU-282987]", "values": [
      {"measurement": "RGC cell numbers in the intact rat", "setting": "RGC", "result": "increase in RGC cell numbers"},
      {"measurement": "Cell numbers in porcine retinal cell culture relative to control", "setting": "[1]", "result": "increased numbers of cells"},
      {"measurement": "Neuroprotection against glutamate-induced excitotoxicity", "setting": "[2]", "result": "effective in the low-to-mid nanomolar concentration range"},
      {"measurement": "Cell numbers in isolated rat RGC culture relative to control", "setting": "isolated rat RGCs", "result": "increased numbers of cells"}
    ]},
    {"compound": "C[N+](C)(C)CCO", "note": "[choline]", "values": [
      {"measurement": "Reduction of glutamate-induced excitotoxicity", "setting": "adult porcine RGCs", "result": "significantly reduced"}
    ]},
    {"compound": "Clc1ccc(C2CC3CCC2N3)cn1", "note": "(centres unmarked) [epibatidine]", "values": [
      {"measurement": "inhibition at 100 µM", "setting": "α7 nAChR; read-out: Percent inhibition of [125I]-α-BTX binding", "result": 3, "unit": "%"},
      {"measurement": "Threshold dose, calcium response", "setting": "retinal ganglion cells", "result": 1, "unit": "nM"},
      {"measurement": "Ki", "setting": "α3 nAChR", "result": "0.7 ± 0.05", "unit": "nM"},
      {"measurement": "Ki", "setting": "α7 nicotinic receptors", "result": 233, "unit": "nM"},
      {"measurement": "Ki", "setting": "α4β2 nicotinic receptors", "result": 0.02, "unit": "nM"},
      {"measurement": "Ki", "setting": "α4 nAChR", "result": "0.1 ± 0.03", "unit": "nM"}
    ]},
    {"compound": "CN1CCC[C@H]1c1cccnc1", "note": "[nicotine]", "values": [
      {"measurement": "Ki", "setting": "α7 nAChR", "result": "300000 ± 22000", "unit": "nM"},
      {"measurement": "Concentration at which toxicity reported", "setting": "adult porcine RGCs", "result": 50, "unit": "µM"},
      {"measurement": "Reduction of glutamate-induced excitotoxicity", "setting": "adult porcine RGCs", "result": "significantly reduced"},
      {"measurement": "Saturating dose, calcium response", "setting": "retinal ganglion cells; [3]", "result": 20, "unit": "µM"},
      {"measurement": "Threshold dose, calcium response", "setting": "retinal ganglion cells; [3]", "result": 2000, "unit": "nM"},
      {"measurement": "Ki", "setting": "α3 nAChR", "result": "220 ± 0.6", "unit": "nM"},
      {"measurement": "Protection against glutamate-induced excitotoxicity at higher levels", "setting": "[2]; additional preliminary and published experiments ([47])", "result": "drop-off in protection at higher levels"},
      {"measurement": "Ki", "setting": "α4 nAChR", "result": "20 ± 0.7", "unit": "nM"}
    ]},
    {"compound": "α-Bungarotoxin [α-BTX]", "values": [
      {"measurement": "Ki", "setting": "α7 nAChR; read-out: Mean Ki against [125I]-α-BTX", "result": "170 ± 40", "unit": "nM"},
      {"measurement": "IC50", "setting": "α7 nAChRs", "result": 1.6, "unit": "nM"},
      {"measurement": "Effect of antagonist on neuroprotection by PNU-282987", "setting": "[2]", "result": "reduction in the neuroprotective effects"},
      {"measurement": "IC50", "setting": "α3β4 receptors", "result": "> 3000", "unit": "nM"},
      {"measurement": "Percent inhibition of [3H]-cytisine binding", "setting": "α4 nAChR; 0.1 µM", "result": "3% ± 3"}
    ]}
  ]
}
